Measured values as given in US9862720B2, “Inhibitors of the renal outer medullary potassium channel” (Merck Sharp & Dohme Corp., priority 2014, dated 2018).

How the values were obtained:
[1] = target: T1, ROMK (Kir1.1) channel (Homo sapiens, UniProt P48048); experiment: Thallium Flux Assay; format: cell-based
T1 sequence (P48048 1-391): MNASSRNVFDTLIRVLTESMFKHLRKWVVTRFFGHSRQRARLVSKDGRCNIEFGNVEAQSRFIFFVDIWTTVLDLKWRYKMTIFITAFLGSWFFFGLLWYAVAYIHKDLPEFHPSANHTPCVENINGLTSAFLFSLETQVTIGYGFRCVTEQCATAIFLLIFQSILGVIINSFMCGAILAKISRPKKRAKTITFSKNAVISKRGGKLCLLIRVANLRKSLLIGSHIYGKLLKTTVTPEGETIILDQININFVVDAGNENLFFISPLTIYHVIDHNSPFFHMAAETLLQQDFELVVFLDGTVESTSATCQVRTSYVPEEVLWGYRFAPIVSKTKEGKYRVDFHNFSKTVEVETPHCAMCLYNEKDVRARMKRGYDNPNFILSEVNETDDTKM
Description: A Thallium Flux Assay was performed on the compounds of the Examples. This assay has been described previously; see, e.g., PCT Published Application WO 2013/062900.

[2] = target: T2, Kir1.1 (ROMK1) (Homo sapiens, UniProt P48048); experiment: Electrophysiology Assay (whole cell voltage clamp, IonWorks Quattro); format: cell-based; conditions: Chinese hamster ovary cells stably expressing Kir1.1; fractional block at voltage step to 0 mV; 6 min compound incubation
T2 construct: expressed in transfected cells
T2 sequence (P48048 1-391): T1 sequence (P48048 1-391)
Description: Blocking of Kir1.1 (ROMK1) currents was examined by whole cell voltage clamp (Hamill et. al. Pfluegers Archives 391:85-100 (1981) using the IonWorks Quattro automated electrophysiology platform (Molecular Devices, Sunnyvale, Calif.). Chinese hamster ovary cells stably expressing Kir1.1 channels were maintained in T-75 flasks in cell culture media in a humidified 10% CO2 incubator at 37° C. Prior to an experiment, Kir1.1 expression was induced by overnight incubation with 1 mM sodium butyrate. On the day of the experiment, cells were dissociated with 2.5 mL of Versene (Invitrogen 15040-066), a non-enzymatic cell dissociation reagent, for approximately 6 min at 37° C. and suspended in 10 mL of bath solution containing (in mM): 150 NaCl, 10 KCl, 2.7 CaCl2, 0.5 MgCl2, and 5 HEPES, at pH 7.4. After centrifugation, the cell pellet was resuspended in approximately 4.0 mL of bath solution and placed in the IonWorks instrument. The intracellular solution consisted of (in mM): 80 K gluconate, 40 KCl, 20 KF, 3.2 MgCl2, 3 EGTA, and 5 Hepes, at pH 7.4. Electrical access to the cytoplasm was achieved by perforation in 0.13 mg/mL amphotericin B for 4 min. Amphotericin B (Sigma A-4888) was prepared as a 40 mg/mL solution in DMSO.
Voltage protocols and current recordings were performed using the IonWorks HT software/hardware system. Currents were sampled at 1 kHz. There was no correction for liquid junction potentials. The test pulse, consisting of a 100 ms (millisecond) step to 0 mV (millivolts) from a holding potential of −70 mV, followed by a 100 ms voltage ramp from −70 mV to +70 mV, was applied before and after a 6 min compound incubation period. Test compounds were prepared by diluting DMSO stock solutions into the bath solution at 3× the final concentration and placed in the instrument in 96-well polypropylene plates. Current amplitudes were measured using the IonWorks software. To assess compound potency, the fractional block during the voltage step to 0 mV was calculated in Microsoft Excel (Microsoft, Redmond, Calif.), and dose-response curves were fitted with Igor Pro 4.0 (WaveMetrics, Lake Oswego, Oreg.). Although not required, a control compound is typically included to support that the assay is giving consistent results compared to previous measurements.

Row | IC50 [1] | IC50 [2] | SMILES
1 | 267 nM |  | CC1=C(N2N=CC3(CCN(CC(O)c4ccc(-n5cnnn5)nn4)CC3)C2=O)COC1=O (single isomer, unassigned) [Example 4A, 8-(2-(6-(1H-tetrazol-1-yl)pyridazin-3-yl)-2-hydroxyethyl)-2-(4-methyl-5-oxo-2,5-dihydrofuran-3-yl)-2,3,8-triazaspiro[4.5]dec-3-en-1-one]
2 | 45.8 nM |  | CC1=C(N2N=CC3(CCN(CCc4ccc(-n5cnnn5)nn4)CC3)C2=O)COC1=O [Example 5, 8-(2-(6-(1H-tetrazol-1-yl)pyridazin-3-yl)ethyl)-2-(4-methyl-5-oxo-2,5-dihydrofuran-3-yl)-2,3,8-triazaspiro[4.5]dec-3-en-1-one]

More lines, now with the values behind:

Row | SMILES | IC50 [1] | IC50 [2]
3 | CC1=C(N2NCC3(CCN(C[C@H](O)c4ccc5c(c4C)COC5=O)CC3)C2=O)COC1=O [Example 1, (R)-8-(2-hydroxy-2-(4-methyl-1-oxo-1,3-dihydroisobenzofuran-5-yl)ethyl)-2-(4-methyl-5-oxo-2,5-dihydrofuran-3-yl)-2,3,8-triazaspiro[4.5]decan-1-one] | 68.4 nM | 33 nM
4 | CC1=C(N2NCC3(CCN(C[C@H](O)c4ccc(-n5cnnn5)nc4)CC3)C2=O)COC1=O [Example 2A, (R)-8-(2-(6-(1H-tetrazol-1-yl)pyridin-3-yl)-2-hydroxyethyl)-2-(4-methyl-5-oxo-2,5-dihydrofuran-3-yl)-2,3,8-triazaspiro[4.5]decan-1-one] | 36.5 nM | 53 nM
5 | CC1=C(N2NCC3(CCN(C[C@@H](O)c4ccc(-n5cnnn5)nc4)CC3)C2=O)COC1=O [Example 2B, (S)-8-(2-(6-(1H-tetrazol-1-yl)pyridin-3-yl)-2-hydroxyethyl)-2-(4-methyl-5-oxo-2,5-dihydrofuran-3-yl)-2,3,8-triazaspiro[4.5]decan-1-one] | 57.8 nM | 33 nM
6 | CC1=C(N2N=CC3(CCN(C[C@H](O)c4ccc(-n5cnnn5)nc4)CC3)C2=O)COC1=O [Example 3A, (R)-8-(2-(6-(1H-tetrazol-1-yl)pyridin-3-yl)-2-hydroxyethyl)-2-(4-methyl-5-oxo-2,5-dihydrofuran-3-yl)-2,3,8-triazaspiro[4.5]dec-3-en-1-one] | 54.9 nM | 17 nM
7 | CC1=C(N2N=CC3(CCN(C[C@@H](O)c4ccc(-n5cnnn5)nc4)CC3)C2=O)COC1=O [Example 3B, (S)-8-(2-(6-(1H-tetrazol-1-yl)pyridin-3-yl)-2-hydroxyethyl)-2-(4-methyl-5-oxo-2,5-dihydrofuran-3-yl)-2,3,8-triazaspiro[4.5]dec-3-en-1-one] | 57.1 nM | 
